According to ChEMBL document CHEMBL4483862, “Open-source discovery of chemical leads for next-generation chemoprotective antimalarials” (2018):

Test system: Plasmodium berghei
Assay: Luciferase/luciferin-expressing antifolate-resistant parasites were used to infect a culture of HepG2 cells that were pre-incubated with compounds. Infected hepatocytes emit light due to the luciferase reaction. Assay results are presented as the percent inhibition of light emission compared to control. […]
Type: functional
Details: sporozoite; for IC90: read-out: LUCIFERASE INFECTION ASSAY - IC90

| Compound | IC90 [µM] | further results |
| --- | --- | --- |
| CCOC(=O)c1c(-c2ccccc2)oc2ccc(OCC(O)CNCCN(C)C)cc12 (stereo not given) | > 10 | IC50 (PBLUC_HILL_SLOPE 9.38, PBLUC_R_SQUARED 0.614, read-out: LUCIFERASE INFECTION ASSAY - IC50): 8.91 µM |
| CN(C)CCCn1c(SCC(=O)N2c3ccccc3Sc3ccccc32)nc2ccccc2c1=O | 9.41 | IC50 (PBLUC_HILL_SLOPE 9.03, PBLUC_R_SQUARED 0.19, read-out: LUCIFERASE INFECTION ASSAY - IC50): 7.38 µM |
| Cc1c(C(=O)NCc2ccc(Cl)c(Cl)c2)sc(=O)n1Cc1ccc(S(=O)(=O)N(C)C)cc1 | > 6.41 | IC50 (PBLUC_HILL_SLOPE 9.17, PBLUC_R_SQUARED 0.333, read-out: LUCIFERASE INFECTION ASSAY - IC50): 5.25 µM |
| COc1ccc(CC(N)c2csc(NC(=O)c3cccc(OC(F)(F)F)c3)n2)cc1 (stereo not given) | 7.48 | IC50 (PBLUC_HILL_SLOPE 9.24, PBLUC_R_SQUARED 0.637, read-out: LUCIFERASE INFECTION ASSAY - IC50): 5.89 µM |
| Cc1cc(C(=O)Cn2cnc3ccccc32)c(C)n1-c1ccccn1 | > 10 | IC50 (PBLUC_HILL_SLOPE 9.42, PBLUC_R_SQUARED 0.321, read-out: LUCIFERASE INFECTION ASSAY - IC50): 9.29 µM |
| Cc1oc(-c2cccs2)nc1CC(=O)NNC(=O)CC12CC3CC(CC(C3)C1)C2 | 4.57 | IC50 (PBLUC_HILL_SLOPE 9.4, PBLUC_R_SQUARED 0.433, read-out: LUCIFERASE INFECTION ASSAY - IC50): 3.62 µM |
| c1ccc2c(Sc3ncnc4sccc34)cccc2c1 | > 11.2 | IC50 (PBLUC_HILL_SLOPE 9.33, PBLUC_R_SQUARED 0.332, read-out: LUCIFERASE INFECTION ASSAY - IC50): > 11.2 µM |
| NC(=O)c1cccc(-c2cn3c(-c4cccc(O)c4)cnc3cn2)c1 | > 9.99 | IC50 (PBLUC_HILL_SLOPE 9.23, PBLUC_R_SQUARED 0.539, read-out: LUCIFERASE INFECTION ASSAY - IC50): 8.89 µM |
| CC(C)(C)c1csc(NC(=O)C2CCCN2S(=O)(=O)c2ccc(Br)s2)n1 (stereo not given) | > 10 | IC50 (PBLUC_HILL_SLOPE 9.23, PBLUC_R_SQUARED 0.508, read-out: LUCIFERASE INFECTION ASSAY - IC50): 9.84 µM |
| O=C(NCc1nccs1)c1nn(Cc2ccccc2)c2c1CN(C(=O)c1cc3ccccc3[nH]1)CC2 | > 6.65 | IC50 (PBLUC_HILL_SLOPE 8.98, PBLUC_R_SQUARED 0.075, read-out: LUCIFERASE INFECTION ASSAY - IC50): 5.69 µM |
| O=C(NC1CC1)c1ccc(CN(Cc2ccco2)Cc2nc(-c3ccc(F)cc3)no2)cc1 | 0.482 | IC50 (PBLUC_HILL_SLOPE 9.42, PBLUC_R_SQUARED 0.908, read-out: LUCIFERASE INFECTION ASSAY - IC50): 0.382 µM |
| Nc1ccc(-c2cn3c(-c4cccc(O)c4)cnc3cn2)cn1 | > 10.9 | IC50 (PBLUC_HILL_SLOPE 9.28, PBLUC_R_SQUARED 0.463, read-out: LUCIFERASE INFECTION ASSAY - IC50): 9.03 µM |
| Fc1cccc(-c2cnc3cnc(-c4ccc(CNc5ccccc5)cc4)cn23)c1 | > 8.37 | IC50 (PBLUC_HILL_SLOPE 9.4, PBLUC_R_SQUARED 0.212, read-out: LUCIFERASE INFECTION ASSAY - IC50): > 8.37 µM |
| CCCCCc1ccc(-c2nnc(Sc3ccc(C(F)(F)F)cc3[N+](=O)[O-])[nH]2)cc1 | > 7.56 | IC50 (PBLUC_HILL_SLOPE 9.1, PBLUC_R_SQUARED 0.598, read-out: LUCIFERASE INFECTION ASSAY - IC50): 6.15 µM |
| CSc1sc(C#N)c(C)c1-c1ccon1 | > 14 | IC50 (PBLUC_HILL_SLOPE 9.35, PBLUC_R_SQUARED 0.116, read-out: LUCIFERASE INFECTION ASSAY - IC50): > 14 µM |
| COc1ccc(-c2cc3ncnc(NCC4CN(Cc5ccccc5)CCO4)c3s2)cc1 (stereo not given) | > 10 | IC50 (PBLUC_HILL_SLOPE 9.06, PBLUC_R_SQUARED 0.282, read-out: LUCIFERASE INFECTION ASSAY - IC50): 8.38 µM |
| Cc1c(-c2ccc(Cl)c(S(=O)(=O)N(C)c3ccccc3)c2)oc2ccc(F)cc2c1=O | 4.45 | IC50 (PBLUC_HILL_SLOPE 9.42, PBLUC_R_SQUARED 0.55, read-out: LUCIFERASE INFECTION ASSAY - IC50): 3.52 µM |
| COc1ccc(-c2csc3nc(-c4cccnc4)nc(NCCN4CCOCC4)c23)cc1OC | > 10 | IC50 (PBLUC_HILL_SLOPE 9.41, PBLUC_R_SQUARED 0.036, read-out: LUCIFERASE INFECTION ASSAY - IC50): 9.3 µM |
| O=S(=O)(Nc1cccc2cccnc12)c1cc(Cl)c(Cl)cc1Cl | > 8.51 | IC50 (PBLUC_HILL_SLOPE 9.06, PBLUC_R_SQUARED 0.472, read-out: LUCIFERASE INFECTION ASSAY - IC50): > 8.51 µM |
| O=C(C[n+]1ccc(NC(=O)c2ccccc2)cc1)c1ccc(F)cc1 | > 7.95 | IC50 (PBLUC_HILL_SLOPE 9.15, PBLUC_R_SQUARED 0.444, read-out: LUCIFERASE INFECTION ASSAY - IC50): 6.42 µM |

| Compound | IC90 [µM] | further results |
| --- | --- | --- |
| CCCNC(=O)c1c(NC(=O)c2cccc(F)c2)nc2ccc(C)cn12 | > 9.31 | IC50 (PBLUC_HILL_SLOPE 9.17, PBLUC_R_SQUARED 0.612, read-out: LUCIFERASE INFECTION ASSAY - IC50): 7.79 µM |
| COc1cncc(-c2cncc(Nc3ccc(C(C)C)cc3)c2)c1 | 5.21 | IC50 (PBLUC_HILL_SLOPE 9.07, PBLUC_R_SQUARED 0.477, read-out: LUCIFERASE INFECTION ASSAY - IC50): 4.09 µM |
| COc1cc(OC)cc(C(NS(=O)(=O)c2cc(C(F)(F)F)ccc2Cl)c2nccn2C)c1 (stereo not given) | > 10 | IC50 (PBLUC_HILL_SLOPE 9.29, PBLUC_R_SQUARED 0.399, read-out: LUCIFERASE INFECTION ASSAY - IC50): 8.07 µM |
| COC(=O)c1scc(C)c1N1C(=O)C=CC1=O | > 13.1 | IC50 (PBLUC_HILL_SLOPE 9.1, PBLUC_R_SQUARED 0.327, read-out: LUCIFERASE INFECTION ASSAY - IC50): > 13.1 µM |
| CCOC(=O)N1CCC(NC(=O)/C(=C/c2ccc(OC(F)F)cc2)c2ccccc2)CC1 | 9.96 | IC50 (PBLUC_HILL_SLOPE 9.1, PBLUC_R_SQUARED 0.0303, read-out: LUCIFERASE INFECTION ASSAY - IC50): 7.82 µM |
| Cc1ccc(Sc2ccc(NC(=S)NCC3CCCO3)cc2)c(C)c1 (stereo not given) | > 10 | IC50 (PBLUC_HILL_SLOPE 9.48, PBLUC_R_SQUARED 0.239, read-out: LUCIFERASE INFECTION ASSAY - IC50): 8.41 µM |
| COc1ccc(-c2cc3c(cn2)nc(NCc2cccc(C)c2)n3C)cc1 | > 10 | IC50 (PBLUC_HILL_SLOPE 9.11, PBLUC_R_SQUARED 0.402, read-out: LUCIFERASE INFECTION ASSAY - IC50): 9.46 µM |
| CCOC(=O)C1CCCN(CC(=O)N2N=C3/C(=C/c4ccc(Cl)cc4)CCCC3C2c2ccc(Cl)cc2)C1 (stereo not given) | > 10 | IC50 (PBLUC_HILL_SLOPE 9.1, PBLUC_R_SQUARED 0.32, read-out: LUCIFERASE INFECTION ASSAY - IC50): 7.93 µM |
| CCc1cc2c(COC(=O)c3cc(C(C)=O)cn3C)cc(=O)oc2cc1O | > 10 | IC50 (PBLUC_HILL_SLOPE 9.37, PBLUC_R_SQUARED 0.164, read-out: LUCIFERASE INFECTION ASSAY - IC50): 8.69 µM |
| Cc1ccc(Cn2c(NCc3cccs3)nc3ccccc32)cc1 | > 9.9 | IC50 (PBLUC_HILL_SLOPE 9.45, PBLUC_R_SQUARED 0.348, read-out: LUCIFERASE INFECTION ASSAY - IC50): 8.16 µM |
| Cc1csc2nc(CNC(c3ccc(C4CCCCC4)cc3)C(C)C)cc(=O)n12 (stereo not given) | 4.73 | IC50 (PBLUC_HILL_SLOPE 9.21, PBLUC_R_SQUARED 0.523, read-out: LUCIFERASE INFECTION ASSAY - IC50): 3.73 µM |
| CC(C)Oc1ccc(C(=O)NCC(=O)Nc2nc3c(s2)CCCC3)cc1 | 4.24 | IC50 (PBLUC_HILL_SLOPE 9.11, PBLUC_R_SQUARED 0.281, read-out: LUCIFERASE INFECTION ASSAY - IC50): 3.33 µM |
| CNCCCNCc1cccc(OC)c1OCc1ccc(Cl)cc1 | > 9.46 | IC50 (PBLUC_HILL_SLOPE 9.3, PBLUC_R_SQUARED 0.597, read-out: LUCIFERASE INFECTION ASSAY - IC50): 8.76 µM |
| CC(C)(C)c1ccc(-c2nnc(SCc3ccccc3)n2-c2cccc(C(F)(F)F)c2)cc1 | > 7.06 | IC50 (PBLUC_HILL_SLOPE 9.35, PBLUC_R_SQUARED 0.201, read-out: LUCIFERASE INFECTION ASSAY - IC50): 6.61 µM |
| O=C(Nc1nc(C23CC4CC(CC(C4)C2)C3)cs1)c1cnccn1 | > 10 | IC50 (PBLUC_HILL_SLOPE 9.13, PBLUC_R_SQUARED 0.249, read-out: LUCIFERASE INFECTION ASSAY - IC50): 8.02 µM |
| Cc1ccccc1-c1ccc(CN2CCc3c(c(C(=O)NCc4ccccc4)nn3CCO)C2)cc1 | 2.98 | IC50 (PBLUC_HILL_SLOPE 9.2, PBLUC_R_SQUARED 0.549, read-out: LUCIFERASE INFECTION ASSAY - IC50): 2.35 µM |
| CCC(=O)Nc1ccc(CNC(=O)N2CCN(c3ccccc3C)CC2)cc1 | 1.73 | IC50 (PBLUC_HILL_SLOPE 9.1, PBLUC_R_SQUARED 0.639, read-out: LUCIFERASE INFECTION ASSAY - IC50): 1.36 µM |
| COc1ccc(Nc2nccc3c2cc(-c2ccccc2OC)n3C)cn1 | 4.48 | IC50 (PBLUC_HILL_SLOPE 9.12, PBLUC_R_SQUARED 0.328, read-out: LUCIFERASE INFECTION ASSAY - IC50): 3.52 µM |
| O=C1C=CC(=O)N1c1cccc(N2C(=O)C=CC2=O)c1 | > 12.3 | IC50 (PBLUC_HILL_SLOPE 9.05, PBLUC_R_SQUARED 0.121, read-out: LUCIFERASE INFECTION ASSAY - IC50): 11.2 µM |
| Cn1c(Sc2ncnc3sccc23)nc2ccccc21 | 5.38 | IC50 (PBLUC_HILL_SLOPE 9.4, PBLUC_R_SQUARED 0.756, read-out: LUCIFERASE INFECTION ASSAY - IC50): 4.26 µM |
